Our source for the activation values is publication PMC10175918 (Communications Biology, 2023).

Holding throughout (assay): TGFα-shedding assay-based GPCR screening with chimeric Gα subunit proteins
Holding throughout (assay type): cell-based

Assay [1] has as its target T1, 348 GPCRs (Homo sapiens, UniProt P25024).
T1 construct: expressed in transfected cells; host or cells: HEK293A
T1 sequence (P25024 1-350): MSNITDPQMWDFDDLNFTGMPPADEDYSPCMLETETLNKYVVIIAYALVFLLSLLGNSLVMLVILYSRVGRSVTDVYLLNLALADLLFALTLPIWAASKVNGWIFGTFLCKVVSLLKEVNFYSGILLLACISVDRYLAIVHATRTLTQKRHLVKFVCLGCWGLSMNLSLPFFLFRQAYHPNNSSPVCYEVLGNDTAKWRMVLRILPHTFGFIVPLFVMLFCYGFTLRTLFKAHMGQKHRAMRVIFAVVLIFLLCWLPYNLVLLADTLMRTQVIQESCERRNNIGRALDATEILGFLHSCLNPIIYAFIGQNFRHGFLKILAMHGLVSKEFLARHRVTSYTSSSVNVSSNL

Assay [2] addresses T2, 348 GPCRs (Homo sapiens, UniProt Q9BY21).
T2 construct: expressed in transfected cells; host or cells: HEK293A
Conditions: 10µM, Favipiravir 100μM.

Assay [3] concerns the target T3, 348 GPCRs (Homo sapiens, UniProt P25101).
T3 construct: expressed in transfected cells; host or cells: HEK293A
T3 sequence (P25101 21-427): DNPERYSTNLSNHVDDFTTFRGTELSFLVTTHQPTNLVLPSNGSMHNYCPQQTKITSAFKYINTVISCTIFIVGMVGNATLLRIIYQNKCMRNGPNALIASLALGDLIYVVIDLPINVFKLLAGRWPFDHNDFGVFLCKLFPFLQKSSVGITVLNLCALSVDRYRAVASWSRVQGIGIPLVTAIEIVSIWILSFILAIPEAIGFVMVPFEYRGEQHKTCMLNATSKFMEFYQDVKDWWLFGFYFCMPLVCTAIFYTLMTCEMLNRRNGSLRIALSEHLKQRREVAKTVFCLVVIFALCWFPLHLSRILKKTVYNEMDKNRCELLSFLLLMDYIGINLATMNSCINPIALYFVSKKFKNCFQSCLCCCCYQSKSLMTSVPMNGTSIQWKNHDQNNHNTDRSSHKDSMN
Conditions: 10µM, Favipiravir 100μM.

In assay [4] the target is T4, 348 GPCRs (Homo sapiens, UniProt Q8IZP9).
T4 construct: expressed in transfected cells; host or cells: HEK293A

For assay [5], the target named is 348 GPCRs (Homo sapiens, UniProt P41146). Conditions: 10µM, Favipiravir 100μM.
Assay [6] deals with T5, 348 GPCRs (Homo sapiens, UniProt P47901).
T5 construct: expressed in transfected cells; host or cells: HEK293A
T5 sequence (P47901 1-424): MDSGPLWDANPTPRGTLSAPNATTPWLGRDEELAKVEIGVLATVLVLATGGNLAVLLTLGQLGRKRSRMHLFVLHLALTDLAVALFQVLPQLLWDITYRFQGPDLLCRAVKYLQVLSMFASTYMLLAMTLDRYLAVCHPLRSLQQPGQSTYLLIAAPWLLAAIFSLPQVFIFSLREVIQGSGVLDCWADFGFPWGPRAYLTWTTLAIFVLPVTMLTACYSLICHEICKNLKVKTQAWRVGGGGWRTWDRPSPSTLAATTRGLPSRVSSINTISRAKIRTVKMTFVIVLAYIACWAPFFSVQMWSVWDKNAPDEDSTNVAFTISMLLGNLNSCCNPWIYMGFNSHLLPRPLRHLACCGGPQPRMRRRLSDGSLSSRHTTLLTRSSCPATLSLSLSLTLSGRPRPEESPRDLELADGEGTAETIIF

Assay [7] concerns the target T6, 348 GPCRs (Homo sapiens, UniProt P48546).
T6 sequence (P48546 22-466): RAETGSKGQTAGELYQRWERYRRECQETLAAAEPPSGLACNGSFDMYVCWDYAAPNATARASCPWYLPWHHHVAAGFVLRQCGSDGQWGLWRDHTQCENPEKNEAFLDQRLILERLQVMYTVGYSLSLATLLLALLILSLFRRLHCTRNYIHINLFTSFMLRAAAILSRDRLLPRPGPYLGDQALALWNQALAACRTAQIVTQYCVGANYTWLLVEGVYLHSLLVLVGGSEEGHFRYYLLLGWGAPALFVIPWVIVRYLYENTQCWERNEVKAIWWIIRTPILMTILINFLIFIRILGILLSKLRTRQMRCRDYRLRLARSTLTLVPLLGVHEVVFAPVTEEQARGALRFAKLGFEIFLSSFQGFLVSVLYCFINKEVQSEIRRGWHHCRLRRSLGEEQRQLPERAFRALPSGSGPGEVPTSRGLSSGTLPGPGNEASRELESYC
The note with it: 10µM, Favipiravir 100μM.

Assay [8] concerns the target T7, 348 GPCRs (Homo sapiens, UniProt P35414).
T7 sequence (P35414 1-380): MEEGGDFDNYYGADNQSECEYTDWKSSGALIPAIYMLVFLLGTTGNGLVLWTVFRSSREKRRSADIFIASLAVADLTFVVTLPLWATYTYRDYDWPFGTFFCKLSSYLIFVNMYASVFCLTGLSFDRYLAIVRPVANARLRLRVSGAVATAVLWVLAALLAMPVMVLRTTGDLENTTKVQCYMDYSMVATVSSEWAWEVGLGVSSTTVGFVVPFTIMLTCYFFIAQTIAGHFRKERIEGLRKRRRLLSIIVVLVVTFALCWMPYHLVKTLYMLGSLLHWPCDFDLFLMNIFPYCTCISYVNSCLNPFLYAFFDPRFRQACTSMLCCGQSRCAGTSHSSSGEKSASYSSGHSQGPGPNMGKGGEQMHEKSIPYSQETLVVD
Conditions: 10µM, Favipiravir 100μM.

Where [9] appears, read: GPR87 (G Protein-Coupled Receptor 87), read-out: % GPCR activation compared to TPA.
The mark [10] stands for this setting: EDNRA (endothelin receptor type A), read-out: % GPCR activation compared to TPA.
Setting [11] is: OPRL1 (opioid Related Nociceptin Receptor 1), read-out: % GPCR activation compared to TPA.
[12] abbreviates: GIPR (gastric inhibitory polypeptide receptor), read-out: % GPCR activation compared to TPA.
The mark [13] stands for this setting: APLNR (apelin receptor), read-out: % GPCR activation compared to TPA.
[14] abbreviates: read-out: % GPCR activation compared to TPA, GPCR CXCR1 (chemokine (C-X-C motif) receptor 1).
Setting [15] is: read-out: % GPCR activation compared to TPA, GPR87 (G Protein-Coupled Receptor 87).
[16] abbreviates: read-out: % GPCR activation compared to TPA, EDNRA (endothelin receptor type A).
The mark [17] stands for this setting: read-out: % GPCR activation compared to TPA, GPCR GPR64 (G protein-coupled receptor 64).
Where [18] appears, read: read-out: % GPCR activation compared to TPA, OPRL1 (opioid Related Nociceptin Receptor 1).
Where [19] appears, read: read-out: % GPCR activation compared to TPA, GPCR V1B (arginine vasopressin receptor 1B).
Setting [20] is: read-out: % GPCR activation compared to TPA, GIPR (gastric inhibitory polypeptide receptor).
Setting [21] is: read-out: % GPCR activation compared to TPA, APLNR (apelin receptor).
[22] abbreviates: GPCR CXCR1 (chemokine (C-X-C motif) receptor 1), read-out: % GPCR activation compared to TPA.
The mark [23] stands for this setting: GPCR GPR64 (G protein-coupled receptor 64), read-out: % GPCR activation compared to TPA.
The mark [24] stands for this setting: GPCR V1B (arginine vasopressin receptor 1B), read-out: % GPCR activation compared to TPA.

Like-named read-outs stand apart in the source and are kept apart here.

T4 sequence (Q8IZP9 38-1017): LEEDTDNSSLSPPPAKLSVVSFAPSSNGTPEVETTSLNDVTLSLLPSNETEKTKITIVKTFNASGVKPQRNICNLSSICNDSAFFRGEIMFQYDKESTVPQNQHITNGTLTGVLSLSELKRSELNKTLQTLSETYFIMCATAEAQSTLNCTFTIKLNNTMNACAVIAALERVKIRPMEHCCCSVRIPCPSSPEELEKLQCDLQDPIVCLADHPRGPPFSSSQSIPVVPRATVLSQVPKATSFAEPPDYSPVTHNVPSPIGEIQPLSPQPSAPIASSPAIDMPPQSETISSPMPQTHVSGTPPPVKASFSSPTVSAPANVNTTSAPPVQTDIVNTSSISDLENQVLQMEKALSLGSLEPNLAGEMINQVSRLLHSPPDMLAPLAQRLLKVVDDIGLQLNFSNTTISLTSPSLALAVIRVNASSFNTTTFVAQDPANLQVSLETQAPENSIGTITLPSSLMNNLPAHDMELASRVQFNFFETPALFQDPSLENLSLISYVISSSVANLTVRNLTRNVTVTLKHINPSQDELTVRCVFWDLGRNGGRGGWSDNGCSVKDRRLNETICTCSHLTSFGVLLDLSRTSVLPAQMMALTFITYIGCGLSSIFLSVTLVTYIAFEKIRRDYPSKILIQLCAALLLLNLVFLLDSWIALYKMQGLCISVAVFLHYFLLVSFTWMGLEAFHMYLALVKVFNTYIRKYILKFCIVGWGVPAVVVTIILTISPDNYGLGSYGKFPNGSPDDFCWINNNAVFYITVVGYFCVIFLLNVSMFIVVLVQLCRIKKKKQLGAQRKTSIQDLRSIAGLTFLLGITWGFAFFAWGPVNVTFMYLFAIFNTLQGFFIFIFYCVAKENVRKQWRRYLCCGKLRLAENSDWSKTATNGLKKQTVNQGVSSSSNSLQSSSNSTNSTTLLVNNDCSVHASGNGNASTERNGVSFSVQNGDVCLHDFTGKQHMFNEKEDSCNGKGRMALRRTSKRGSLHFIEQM
Sequence of 348 GPCRs (Homo sapiens, UniProt P41146) (P41146 whole entry): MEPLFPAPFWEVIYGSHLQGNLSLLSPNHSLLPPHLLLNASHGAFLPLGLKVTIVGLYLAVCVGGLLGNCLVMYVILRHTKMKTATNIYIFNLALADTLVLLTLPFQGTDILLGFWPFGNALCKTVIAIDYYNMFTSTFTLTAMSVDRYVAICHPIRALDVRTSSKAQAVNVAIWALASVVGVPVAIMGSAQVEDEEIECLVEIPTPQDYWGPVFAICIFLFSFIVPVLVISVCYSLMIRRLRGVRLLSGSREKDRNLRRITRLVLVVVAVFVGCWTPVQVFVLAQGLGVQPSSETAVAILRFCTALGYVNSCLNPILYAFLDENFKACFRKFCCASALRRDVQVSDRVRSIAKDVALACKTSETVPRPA
T2 sequence (Q9BY21 whole entry): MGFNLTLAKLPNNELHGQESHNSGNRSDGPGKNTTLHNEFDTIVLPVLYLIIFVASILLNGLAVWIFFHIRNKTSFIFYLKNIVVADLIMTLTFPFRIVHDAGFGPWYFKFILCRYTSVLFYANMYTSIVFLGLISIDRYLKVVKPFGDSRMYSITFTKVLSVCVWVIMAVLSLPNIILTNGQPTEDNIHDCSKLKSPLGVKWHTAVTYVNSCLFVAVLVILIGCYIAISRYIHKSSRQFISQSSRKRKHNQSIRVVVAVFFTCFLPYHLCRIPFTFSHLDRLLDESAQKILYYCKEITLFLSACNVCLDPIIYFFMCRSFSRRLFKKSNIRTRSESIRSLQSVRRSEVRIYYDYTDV

As to `NC(=O)c1nc(F)cnc1O` [favipiravir, 6-fluoro-3-hydroxy-2-pyrazinecarboxamide], the activation at 100 µM in assay [1] (GPCR CXCR1 (chemokine (C-X-C motif) receptor 1), 100μM, read-out: % GPCR activation compared to TPA) is -1.26%; in assay [2] (setting [9]), -4.67%; in assay [3] (setting [10]), 0.818%; in assay [4] (GPCR GPR64 (G protein-coupled receptor 64), 100μM, read-out: % GPCR activation compared to TPA), -2.31%; in assay [6] (GPCR V1B (arginine vasopressin receptor 1B), 100μM, read-out: % GPCR activation compared to TPA), 1.12%. The activation at 10 µM in assay [5] (setting [11]) is -1.44%; in assay [7] (setting [12]), -1.79%; in assay [8] (setting [13]), -2.25%.
As to `CC(C)OC(=O)[C@H](C)N[P@](=O)(OC[C@H]1O[C@@H](n2ccc(=O)[nH]c2=O)[C@](C)(F)[C@@H]1O)Oc1ccccc1` [sofosbuvir], the activation at 10 µM in assay [1] (setting [14]) is -0.0928%; in assay [4] (setting [17]), -7.7%; in assay [5] (setting [18]), 0.297%; in assay [6] (setting [19]) it was -0.149%; in assay [7] (setting [20]), -0.359%; in assay [8] (setting [21]), -5.57%. The figures for the activation at 100 µM in assay [2] (setting [15]) and in assay [3] (setting [16]) were 2.98% and 2.91%, respectively.
`CCC(CC)COC(=O)[C@H](C)N[P@](=O)(OC[C@H]1O[C@@](C#N)(c2ccc3c(N)ncnn23)[C@H](O)[C@@H]1O)Oc1ccccc1` [remdesivir]: the activation at 10 µM is -0.838% in assay [1] (setting [14]); -4.08% in assay [4] (setting [17]); -1.46% in assay [5] (setting [18]); 1.47% in assay [6] (setting [19]); -2.47% in assay [7] (setting [20]); 3.68% in assay [8] (setting [21]). For the same compound, the activation at 100 µM in assay [2] (setting [15]) was -0.159%; in assay [3] (setting [16]), -0.597%.
Take `N#C[C@@]1(c2ccc3c(N)ncnn23)O[C@H](CO)[C@@H](O)[C@H]1O` [GS441524]: the activation at 10 µM in assay [1] (setting [22]) was -1.09%; in assay [4] (setting [23]), -4.34%; in assay [5] (setting [11]), -0.87%; in assay [6] (setting [24]), 0.627%; in assay [7] (setting [12]) it was -3.77%; in assay [8] (setting [13]), -3.07%. Also, the results for the activation at 100 µM in assay [2] (setting [9]) and in assay [3] (setting [10]) were -3.93% and 2.17%, respectively.
In the case of `CC(C)C(=O)OC[C@H]1O[C@@H](n2ccc(NO)nc2=O)[C@H](O)[C@@H]1O` [molnupiravir], the activation at 10 µM in assay [1] (setting [22]) is -2.06%; in assay [4] (setting [23]) it was -5.62%; in assay [5] (setting [11]), -2.5%; in assay [6] (setting [24]), -0.66%; in assay [7] (setting [12]), 1.42%; in assay [8] (setting [13]), -5.92%. The results for the activation at 100 µM in assay [2] (setting [9]) and in assay [3] (setting [10]) were 0.11% and 0.536%, respectively.
